Laboratory results published in patent publication US20230151024A1, “STING AGONISTIC COMPOUND” (ONO PHARMACEUTICAL CO., LTD., priority 2020, published 2023).

Tests used:
[1] = Conversion of a prodrug to an active body thereof in mouse plasma; format: in vitro ADME; details: 1 μmol/L, 37° C. for 60 minutes, conversion to the compound in Example 3
Method: (§1) The solutions of the example compounds in Table 5 below (50 μmol/L, 50% acetonitrile with 5% DMSO) were added to plasma (245 μL), respectively, such that the final concentrations thereof become 1 μmol/L. After keeping them at 37° C. for 60 minutes, 40 μL of the reaction solutions were taken therefrom, and added to 200 μL of acetonitrile/ethanol (7:3) containing Candesartan (internal standard).
(§2) The concentration of the compound prepared in Example 3 in the plasma resulting from the above reaction was analyzed by LC-MS/MS according to the following method.
(§3) Prominence UFLCXR (Shimadzu Corporation), API5000 (AB Sciex)
(§4) The whole amount was transferred to a filter plate for protein removal and filtered by suction, and the filtrate thereof was diluted 2-fold with water. [LC column] Shim-pack XR-ODSII 2.0 mm ID x 75 mm (Shimadzu Corporation)
(§5) Column temperature: 40° C. Mobile phase: A: 0.2% formic acid in 5 mM ammonium acetate solution; and
(§6) Electrospray, positive mode, multiple reaction monitoring;
(§7) Compound prepared in Example 3: m/z353.0→m/z311.2, DP: 80, CE: 35; and Candesartan (internal standard): m/z309.1→m/z163.0, DP: 71, CE: 21.
(§8) A regression formula was calculated from the peak area ratio of the real sample and the standard sample for the calibration curve in the same matrix (peak area of the compound in Example 3/peak area of Candesartan), and the peak area ratio of the real sample was substituted into the regression formula to calculate the quantitative value. 60 minutes later, the concentration of the compound in Example 3 in the sample was compared, and the conversion rate (%) thereof was calculated using the following formula:
(§9) Conversion rate (%)=Concentration of the compound in Example 3 in the sample after 60 minutes (μmol/L)×100

[2] = Conversion of a prodrug to an active body thereof in human plasma; format: in vitro ADME; details: 1 μmol/L, 37° C. for 60 minutes, conversion to the compound in Example 3
Method: as §1, §2, §3, §4, §5, §6, §7, §8, §9

[3] = tested on: BTK, KDR, each subtype of PKCα to t, each CDK of CDK2 to 9, FAK, TIE2, RAF1 and BRAF; experiment: Evaluation of inhibitory activity against various kinases (mobility shift, LabChip); format: biochemical; details: 4 μmol/L test substance solution at 4 times the final concentration
Method: 4 μmol/L of the test substance solution (the compound in the present invention produced in Example 1) (at 4 times the final concentration) was prepared by dissolving it to the assay buffer (20 mmol/L HEPES, 0.01% Triton X-100, 1 mmol/L DTT, pH 7.5). 4 μmol/L of the substrate/ATP/metal solution (at 4 times the final concentration) was prepared by dissolving it to the kit buffer (20 mmol/L HEPES, 0.01% Triton X-100, 5 mmol/L DTT, pH 7.5). Various kinase solutions at twice the final concentration were prepared by dissolving them to the assay buffer. 5 μL of the test substance solution, 5 μL of the substrate/ATP/metal solution and 10 μL of the kinase solution were mixed in wells of a polypropylene 384-well plate, and the mixture thereof was reacted at room temperature for 1 to 5 hours. The reaction was stopped by adding 70 μL of the termination buffer (QuickScout Screening Assist MSA; Carna Biosciences). The substrate peptide and phosphorylated peptide in the reaction solution were separated and quantified by LabChip system (Perkin Elmer). The kinase reaction was evaluated based on the product ratio (P/(P+S)) calculated from the peak height (S) of the substrate peptide and the peak height (P) of the phosphorylated peptide. The various kinases used in this evaluation are as follows:
BTK, KDR, each subtype of PKCα to t, each CDK of CDK2 to 9, FAK, TIE2, RAF1 and BRAF.

IDO1 = target: T1, IDO1 (Homo sapiens, UniProt P14902); experiment: Evaluation of IDO1 inhibitory activity (IDO1 Fluorogenic Inhibitor Screening Assay Kit); format: biochemical; details: compound solutions of 0.6, 2, 6, 20, 60 and 200 μmol/L added
T1 construct: purchased BPS Bioscience
Method: The evaluation of IDO1 inhibitory activity was carried out using the IDO1 Fluorogenic Inhibitor Screening Assay Kit (BPS Bioscience). Specifically, IDO1 Fluorogenic Reaction Solution was dissolved, of which 180 μL were added to each well. Then, 10 μL of the compounds at the respective concentrations of 0.6, 2, 6, 20, 60 and 200 μmol/L were added thereto. Further, after adding 10 μL of IDO1 His-Tag solution thereto, and the mixture thereof was incubated at room temperature for 1 hour, and then 20 μL of Fluorescence Solution was added thereto, and the mixture thereof was incubated at 37° C. for 4 hours. After standing them at room temperature for 10 minutes, the fluorescence was measured using a microplate reader (excitation: 400 nm, emission: 510 nm).

THP1-Dual-STING KO cells = experiment: Effects on THP1-Dual-STING KO cells (activity of the IRF pathway); format: cell-based; details: STING gene homozygous deficient THP1-Dual cells, about 24 hours
Method: STING gene homozygous deficient THP1-Dual cells (THP1-Dual-STING KO cells (Invivogen) were suspended in RPMI medium to prepare 2×10^6 cells/mL cell suspension. 50 μL of cell suspensions were dispensed into a 96-well plate, to which 50 μL of 6 to 20,000 nM compound solutions were further added, followed by incubation at 37° C. for about 24 hours. 10 μL of the cell suspensions were collected from each well, which were mixed with 50 μL of Quanti-luc (Invivogen), and then the activity of the IRF pathway was measured by detecting luminescence using a microplate reader.

[4] = tested on: colon cancer cell line MC38; experiment: Anti-tumor effect in a subcutaneously colon cancer cell line MC38 tumor-bearing mouse model (Example 17); format: in vivo, mice (C57/BL6); details: 3 mg/kg, administered 7 days after MC38 transplantation, measured until Day 26
Method: Colon cancer cell line MC38 derived from C57/BL6 mice were subcutaneously transplanted to right flank region of syngeneic mice (C57/BL6, female, 6 weeks old (Charles River Japan)) (herein, the day of transplantation was designated as Day 0) to prepare subcutaneously MC38 tumor-bearing mice. Seven days after transplantation, the subcutaneously MC38 tumor-bearing mice were grouped based on tumor volume, and the Vehicle group (n=8) and group to which the compound shown in Example 1 (3 mg/kg, n=6) was administered were set. The changes in tumor volume were continuously measured until 26 days after transplantation (Day 26). The tumor volume was calculated by the following formula:
[Tumor volume (mm^3)]=[major axis (mm)]×[minor axis (mm)]^2×0.5

T1 sequence (P14902 whole entry): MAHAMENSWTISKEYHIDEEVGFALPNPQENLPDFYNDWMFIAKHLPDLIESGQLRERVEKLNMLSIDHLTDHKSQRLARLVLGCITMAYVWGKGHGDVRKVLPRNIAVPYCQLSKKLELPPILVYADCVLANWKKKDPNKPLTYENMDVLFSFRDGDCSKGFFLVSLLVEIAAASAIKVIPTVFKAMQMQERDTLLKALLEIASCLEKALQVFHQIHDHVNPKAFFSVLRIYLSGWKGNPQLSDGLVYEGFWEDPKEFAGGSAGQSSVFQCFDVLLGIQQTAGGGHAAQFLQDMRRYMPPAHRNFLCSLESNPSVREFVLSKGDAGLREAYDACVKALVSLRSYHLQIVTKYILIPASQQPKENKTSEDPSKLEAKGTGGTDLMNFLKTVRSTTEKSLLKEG

SMILES	Plasma conversion rate Mouse [1]	Plasma conversion rate Human [2]	IDO1 inhibitory activity (IDO1)	inhibitory activity against various kinases [3]	IRF activating effect (THP1-Dual-STING KO cells)	tumor growth (tumor volume) [4]
CC(=O)c1cc(-c2ncc(-c3cnn(C(=O)NCC(=O)O)c3)c3onc(N)c23)c(F)cc1N [Example 12(9), (4-(4-(5-acetyl-4-amino-2-fluorophenyl)-3-aminoisoxazolo[4,5-c]pyridin-7-yl)-1H-pyrazole-1-carbonyl)glycine]	+ (the conversion rate of each example compound in the table to the compound in Example 3 is less than 25%)	+ (the conversion rate of each example compound in the table to the compound in Example 3 is less than 25%)	–	–	–	–
CC(=O)c1cc(-c2ncc(-c3cnn(COC(=O)N4CCC(N5CCCCC5)CC4)c3)c3onc(N)c23)c(F)cc1N [Example 12, (4-(4-(5-acetyl-4-amino-2-fluorophenyl)-3-aminoisoxazolo[4,5-c]pyridin-7-yl)-1H-pyrazol-1-yl)methyl [1,4′-bipiperidine]-1′-carboxylate]	+ (the conversion rate of each example compound in the table to the compound in Example 3 is less than 25%)	+ (the conversion rate of each example compound in the table to the compound in Example 3 is less than 25%)	–	–	–	–
CC(=O)c1cc(-c2ncc(-c3cnn(COC(=O)N(C)c4ncccc4COP(=O)(O)O)c3)c3onc(N)c23)c(F)cc1N [Example 12(1), (4-(5-(5-acetyl-4-amino-2-fluorophenyl)-3-aminoisoxazolo[4,5-c]pyridin-7-yl)-1H-pyrazol-1-yl)methyl methyl(3-((phosphonooxy)methyl)pyridin-2-yl)carbamate]	+ (the conversion rate of each example compound in the table to the compound in Example 3 is less than 25%)	+ +	–	–	–	–
COC(=O)c1cc(-c2ncc(-c3cn[nH]c3)c3onc(N)c23)c(F)cc1N [Example 1, methyl 2-amino-5-(3-amino-7-(1H-pyrazol-4-yl)isoxazolo[4,5-c]pyridin-4-yl)-4-fluorobenzoate]	–	–	no IDO1 inhibitory activity	no significantly inhibit activities	no IRF activating effect	almost completely suppressed the tumor growth
CC(=O)c1cc(-c2ncc(-c3cnn(COP(=O)(O)O)c3)c3onc(N)c23)c(F)cc1N [Example 10(1), (4-(4-(5-acetyl-4-amino-2-fluorophenyl)-3-aminoisoxazolo[4,5-c]pyridin-7-yl)-1H-pyrazol-1-yl)methyl dihydrogen phosphate]	+ + +	+ + +	–	–	–	–
CC(=O)c1cc(-c2ncc(-c3cnn(COP(=O)(O)OCOC(=O)OC(C)C)c3)c3onc(N)c23)c(F)cc1N [Example 12(11), ((((4-(4-(5-acetyl-4-amino-2-fluorophenyl)-3-aminoisoxazolo[4,5-c]pyridin-7-yl)-1H-pyrazol-1-yl)methoxy)(hydroxy)phosphoryl)oxy)methyl isopropyl carbonate]	+ (the conversion rate of each example compound in the table to the compound in Example 3 is less than 25%)	+ (the conversion rate of each example compound in the table to the compound in Example 3 is less than 25%)	–	–	–	–

More lines, main results first:

Plasma conversion rate Mouse [1]	Plasma conversion rate Human [2]	IDO1 inhibitory activity (IDO1)	SMILES	inhibitory activity against various kinases [3]	IRF activating effect (THP1-Dual-STING KO cells)	tumor growth (tumor volume) [4]
+ + +	+ + +	–	CC(=O)c1cc(-c2ncc(-c3cnn(COC(=O)OC[C@H]4OC(O)[C@H](O)[C@@H](O)[C@@H]4O)c3)c3onc(N)c23)c(F)cc1N (stereo partly drawn) [Example 12(5), (4-(4-(5-acetyl-4-amino-2-fluorophenyl)-3-aminoisoxazolo[4,5-c]pyridin-7-yl)-1H-pyrazol-1-yl)methyl (((2R,3S,4S,5R)-3,4,5,6-tetrahydroxytetrahydro-2H-pyran-2-yl)methyl) carbonate]	–	–	–
+ + +	+ + +	–	CC(=O)c1cc(-c2ncc(-c3cnn(COC(=O)OCCN4CCOCC4)c3)c3onc(N)c23)c(F)cc1N.Cl [Example 12(4), (4-(4-(5-acetyl-4-amino-2-fluorophenyl)-3-aminoisoxazolo[4,5-c]pyridin-7-yl)-1H-pyrazol-1-yl)methyl (2-morpholinoethyl)carbonate hydrochloride]	–	–	–
+ + +	+ + +	–	COC(=O)n1cc(-c2cnc(-c3cc(C(C)=O)c(N)cc3F)c3c(N)noc23)cn1 [Example 12(10), methyl 4-(4-(5-acetyl-4-amino-2-fluorophenyl)-3-aminoisoxazolo[4,5-c]pyridin-7-yl)-1H-pyrazole-1-carboxylate]	–	–	–
+ + +	+ + +	–	CNCC(=O)OCc1cccnc1N(C)C(=O)OCn1cc(-c2cnc(-c3cc(C(C)=O)c(N)cc3F)c3c(N)noc23)cn1.Cl [Example 12(3), 2-((2-((((4-(4-(5-acetyl-4-amino-2-fluorophenyl)-3-aminoisoxazolo[4,5-c]pyridin-7-yl)-1H-pyrazol-1-yl)methoxy)carbonyl)(methyl)amino)pyridin-3-yl)methoxy)-N-methyl-2-oxoethane-1-ammonium chloride]	–	–	–
+ + +	+ + +	–	CC(=O)c1cc(-c2ncc(-c3cnn(COC(=O)OC[C@H]4OC(O)[C@H](N)[C@@H](O)[C@@H]4O)c3)c3onc(N)c23)c(F)cc1N.Cl (stereo partly drawn) [Example 12(6), (4-(4-(5-acetyl-4-amino-2-fluorophenyl)-3-aminoisoxazolo[4,5-c]pyridin-7-yl)-1H-pyrazol-1-yl)methyl (((2R,3S,4R,5R)-5-amino-3,4,6-trihydroxytetrahydro-2H-pyran-2-yl)methyl) carbonate hydrochloride]	–	–	–
+ + +	+ + +	–	CNCC(=O)OCc1cccnc1N(C)C(=O)OC(C)n1cc(-c2cnc(-c3cc(C(C)=O)c(N)cc3F)c3c(N)noc23)cn1 (centres unmarked) [Example 12(2), (2-(((1-(4-(4-(5-acetyl-4-amino-2-fluorophenyl)-3-aminoisoxazolo[4,5-c]pyridin-7-yl)-1H-pyrazol-1-yl)ethoxy)carbonyl)(methyl)amino)pyridin-3-yl)methyl methylglycinate]	–	–	–
